Where a name gives a salt, the structure may show the parent alone.
Target: USP7 (Homo sapiens, UniProt Q93009)
Test: biochemical
Design: Ub-AMC hydrolysis by recombinant USP7 (20 nM), 30 min pre-incubation, fluorescence read-out
Details: for inhibition at 50 µM: read-out: % Inhibition at 50 μM

USP7, sequence (Q93009 whole entry): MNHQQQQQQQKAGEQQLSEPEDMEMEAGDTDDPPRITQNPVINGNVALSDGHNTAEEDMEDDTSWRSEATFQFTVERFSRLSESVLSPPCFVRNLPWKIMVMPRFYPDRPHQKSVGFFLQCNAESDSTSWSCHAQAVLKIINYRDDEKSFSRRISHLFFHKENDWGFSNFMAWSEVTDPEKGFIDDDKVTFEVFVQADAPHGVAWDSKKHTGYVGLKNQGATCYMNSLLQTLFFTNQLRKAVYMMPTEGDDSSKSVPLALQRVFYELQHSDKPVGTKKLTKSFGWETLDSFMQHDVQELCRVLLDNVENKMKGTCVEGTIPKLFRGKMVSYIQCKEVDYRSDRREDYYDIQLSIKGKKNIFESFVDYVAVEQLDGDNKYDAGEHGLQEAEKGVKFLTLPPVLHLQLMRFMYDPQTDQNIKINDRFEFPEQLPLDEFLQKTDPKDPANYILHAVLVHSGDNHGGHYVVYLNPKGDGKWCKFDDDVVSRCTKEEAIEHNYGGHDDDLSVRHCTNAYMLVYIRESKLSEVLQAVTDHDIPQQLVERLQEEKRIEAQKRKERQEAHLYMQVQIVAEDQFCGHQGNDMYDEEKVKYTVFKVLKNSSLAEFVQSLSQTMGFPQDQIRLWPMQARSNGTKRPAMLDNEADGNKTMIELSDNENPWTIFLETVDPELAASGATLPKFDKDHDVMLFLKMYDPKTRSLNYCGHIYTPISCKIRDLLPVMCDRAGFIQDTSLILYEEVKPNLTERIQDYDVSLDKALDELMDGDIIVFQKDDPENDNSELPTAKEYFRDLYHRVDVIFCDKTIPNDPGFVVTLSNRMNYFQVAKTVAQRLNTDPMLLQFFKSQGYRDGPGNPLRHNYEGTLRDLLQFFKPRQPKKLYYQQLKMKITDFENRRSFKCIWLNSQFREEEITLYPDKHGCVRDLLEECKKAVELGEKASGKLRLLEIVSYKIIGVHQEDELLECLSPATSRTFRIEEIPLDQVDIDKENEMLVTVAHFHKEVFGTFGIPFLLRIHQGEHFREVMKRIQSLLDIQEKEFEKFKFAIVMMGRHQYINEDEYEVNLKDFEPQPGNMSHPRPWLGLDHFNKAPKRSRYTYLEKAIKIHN

| SMILES | inhibition at 50 µM [%] | % Inhibition at 50 μM (inhibitor) [%] |
| --- | --- | --- |
| CC[C@@H]1C(=O)OC[C@@H]1Cc1cncn1C [Pilocarpine HCl] | < 5 | – |
| CO[C@@H]1[C@@H](OC(N)=O)[C@@H](O)[C@H](Oc2ccc3c(O)c(NC(=O)c4ccc(O)c(CC=C(C)C)c4)c(=O)oc3c2C)OC1(C)C [Novobiocin Na] | < 5 | – |
| C#C[C@]1(O)CC[C@H]2[C@@H]3CCC4=Cc5oncc5C[C@]4(C)[C@H]3CC[C@@]21C [Danazol] | < 5 | – |
| Oc1ccc2c3c1O[C@H]1c4[nH]c5ccccc5c4C[C@@]4(O)[C@@H](C2)N(CC2CC2)CC[C@]314 [Naltrindole HCl] | < 5 | – |
| CCCCc1nc(Cl)c(CO)n1Cc1ccc(-c2ccccc2-c2nnn[nH]2)cc1 [Losartan potassium] | < 5 | – |
| COC(=O)C1=C(C)NC(C)=C(C(=O)OCCN(C)Cc2ccccc2)C1c1cccc([N+](=O)[O-])c1 (centres unmarked) [Nicardipine] | < 5 | – |
| COC1=C(OC)C(=O)C(CCCCCCCCCCO)=C(C)C1=O [Idebenone] | < 5 | – |
| O=c1[nH]cnc2c1ncn2[C@H]1CC[C@@H](CO)O1 [Didanosine] | < 5 | – |
| O=C(O)Cc1ccccc1Nc1c(Cl)cccc1Cl [Diclofenac, Na] | < 5 | – |
| CC(CN1c2ccccc2Sc2ccccc21)N(C)C (centres unmarked) [Promethazine HCl] | 8.9 | – |
| CC[C@H]1OC(=O)[C@H](C)[C@@H](O[C@H]2C[C@@](C)(OC)[C@@H](O)[C@H](C)O2)[C@H](C)[C@@H](O[C@@H]2O[C@H](C)C[C@H](N(C)C)[C@H]2O)[C@](C)(OC)C[C@@H](C)C(=O)[C@H](C)[C@@H](O)[C@]1(C)O [Clarithromycin] | < 5 | – |
| Cc1nc2c([nH]1)c(=O)n(C)c(=O)n2Cc1ccco1 [Furafylline] | < 5 | – |
| CC[C@]1(O)C[C@@H]2CN(CCc3c([nH]c4ccccc34)[C@@](C(=O)OC)(c3cc4c(cc3OC)N(C)[C@H]3[C@@](O)(C(N)=O)[C@H](O)[C@]5(CC)C=CCN6CC[C@]43[C@@H]65)C2)C1 [Vindesine] | < 5 | – |
| CN(C)c1ccc(O)c2c1C[C@H]1C[C@H]3[C@H](N(C)C)C(O)=C(C(N)=O)C(=O)[C@@]3(O)C(O)=C1C2=O [Minocycline HCl] | < 5 | – |
| CCOC(=O)c1cnc2c(cnn2CC)c1NN=C(C)C [Etazolate] | < 5 | – |
| C[C@H]1[C@H](OC(=O)CCC(=O)O)O[C@@H]2O[C@@]3(C)CC[C@H]4[C@H](C)CC[C@@H]1[C@@]24OO3 [Artesunate] | < 5 | – |
| O=C(CCCN1CCC(O)(c2ccc(Cl)cc2)CC1)c1ccc(F)cc1 [Haloperidol HCl] | < 5 | – |
| OCCN1CCN(CCCN2c3ccccc3Sc3ccc(C(F)(F)F)cc32)CC1 [Fluphenazine 2HCl] | < 5 | – |
| C[C@H]1c2cccc(O)c2C(=O)C2=C(O)[C@]3(O)C(=O)C(C(N)=O)=C(O)[C@@H](N(C)C)[C@@H]3[C@@H](O)[C@@H]21 [Doxycycline HCl] | < 5 | – |
| COc1ccc(C2CNC(=O)C2)cc1OC1CCCC1 (centres unmarked) [Rolipram] | < 5 | – |
| Cc1ccc(N(CC2=NCCN2)c2cccc(O)c2)cc1 [Phentolamine HCl] | < 5 | – |
| C[C@@H]1CCC[C@H](C)N1NC(=O)c1ccc(Cl)c(S(N)(=O)=O)c1 [Clopamide] | < 5 | – |
| C[C@]12Cc3c[nH]nc3C[C@@H]1CC[C@@H]1[C@@H]2CC[C@@]2(C)[C@H]1CC[C@]2(C)O [Stanozolol] | < 5 | – |
| COc1ccccc1Oc1c(NS(=O)(=O)c2ccc(C(C)(C)C)cc2)nc(-c2ncccn2)nc1OCCO [Bosentan] | < 5 | – |

| SMILES | inhibition at 50 µM [%] | % Inhibition at 50 μM (inhibitor) [%] |
| --- | --- | --- |
| Nc1ccn([C@H]2CC[C@@H](CO)O2)c(=O)n1 [2',3' - dideoxycytidine] | < 5 | – |
| COc1cc(NC(C)CCCN)c2ncccc2c1 (centres unmarked) [Primaquine phosphate] | < 5 | – |
| CC(C(=O)O)c1cccc(C(=O)c2ccccc2)c1 (centres unmarked) [Ketoprofen] | < 5 | – |
| NS(=O)(=O)Cc1noc2ccccc12 [Zonisamide] | < 5 | – |
| CC1(C)CC[C@]2(C(=O)O)CC[C@]3(C)C(=CC[C@@H]4[C@@]5(C)C[C@H](O)[C@H](O)[C@@](C)(CO)[C@@H]5CC[C@]43C)[C@@H]2C1 [Bayogenin] | < 5 | – |
| CC/C(=C(/CC)c1ccc(O)cc1)c1ccc(O)cc1 [Diethylstilbestrol] | 30.6 | – |
| NC[C@H](O)c1ccc(O)c(O)c1 [Norepinephrine-(+)-tartrate l (-)] | < 5 | – |
| CN(C)CCC[C@@]1(c2ccc(F)cc2)OCc2cc(C#N)ccc21 [Escitalopram] | < 5 | – |
| CCN(CC)CCOc1ccc(C(=C(Cl)c2ccccc2)c2ccccc2)cc1 [Clomiphene citrate] | < 5 | – |
| CCOC(=O)C1=C[C@]2(CC)CCCN3CCc4c(n1c1ccccc41)[C@@H]32 [Vinpocetine] | 38.5 | – |
| Fc1ccc(C(c2ccc(F)cc2)N2CCN(C/C=C/c3ccccc3)CC2)cc1 [Flunarizine-2HCl] | < 5 | – |
| Cc1ccc(C(=O)Nc2ccc(S(=O)(=O)O)c3cc(S(=O)(=O)O)cc(S(=O)(=O)O)c23)cc1NC(=O)c1cccc(NC(=O)Nc2cccc(C(=O)Nc3cc(C(=O)Nc4ccc(S(=O)(=O)O)c5cc(S(=O)(=O)O)cc(S(=O)(=O)O)c45)ccc3C)c2)c1 [Suramin sodium] | < 5 | – |
| CC1(C)CCC2(C(=O)O)C(O)CC3(C)C(=CCC4C5(C)CC(O)C(O)C(C)(CO)C5CCC43C)C2C1 (centres unmarked) [Polygalacic acid] | < 5 | – |
| COc1c(C)c2c(c(O)c1C/C=C(\C)CCC(=O)O)C(=O)OC2 [Mycophenolic acid] | < 5 | – |
| C=C(C)[C@@H]1CC[C@]2(C(=O)O)CC[C@]3(C)[C@H](CC[C@@H]4[C@@]5(C)CC[C@H](O)C(C)(C)[C@@H]5CC[C@]43C)[C@@H]12 [Betulinic acid] | 25.8 | – |
| CC(=O)Oc1ccccc1C(=O)O [Acetylsalicylic acid] | < 5 | – |
| CO[C@H]1C[C@H](O[C@H]2[C@H](C)[C@@H](O[C@@H]3O[C@H](C)C[C@H](N(C)C)[C@H]3OC(C)=O)[C@@H](C)C[C@@]3(CO3)C(=O)[C@H](C)[C@@H](OC(C)=O)[C@@H](C)[C@@H](C)OC(=O)[C@@H]2C)O[C@@H](C)[C@@H]1OC(C)=O [Troleandomycin] | < 5 | – |
| Cn1ccnc1S [Methimazole] | < 5 | – |
| CNC(=O)Oc1ccc2c(c1)[C@]1(C)CCN(C)[C@@H]1N2C [Physostigmine sulfate] | – | <5 |
| CCN[C@H]1C[C@H](C)S(=O)(=O)c2sc(S(N)(=O)=O)cc21 [Dorzolamide] | < 5 | – |
| NC(=O)OCC(COC(N)=O)c1ccccc1 [Felbamate] | < 5 | – |
| CC1(C)[C@H](C(=O)O)N2C(=O)C[C@H]2S1(=O)=O [Sulbactam] | < 5 | – |
| Nc1cc(-c2ccncc2)c[nH]c1=O [Amrinone] | < 5 | – |
| C[C@@H]1CN(c2c(F)c(N)c3c(=O)c(C(=O)O)cn(C4CC4)c3c2F)C[C@H](C)N1 [Sparfloxacin] | < 5 | – |

| SMILES | inhibition at 50 µM [%] | % Inhibition at 50 μM (inhibitor) [%] |
| --- | --- | --- |
| CCCCCCCCCCCCCCCCOP(=O)([O-])OCC[N+](C)(C)C [Miltefosine] | 6.5 | – |
| Nc1ccn([C@@H]2O[C@H](CO)[C@@H](O)[C@@H]2O)c(=O)n1 [Cytarabine] | < 5 | – |
| CCN1CCC[C@H]1CNC(=O)c1c(O)c(Cl)cc(Cl)c1OC [Raclopride l-tartrate s(-)] | < 5 | – |
| CC(C)[N+]1(C)C2CCC1CC(OC(=O)C(CO)c1ccccc1)C2 (centres unmarked) [Ipratropium Br] | < 5 | – |
| C[C@@H]1C(=O)O[C@H]2C[C@@]34[C@H]5C[C@@H](C(C)(C)C)[C@]36[C@@H](OC(=O)[C@@H]6O)O[C@@]4(C(=O)O5)[C@]21O [Ginkgolide a] | < 5 | – |
| CC(C)(C)C(=O)C(Oc1ccc(Cl)cc1)n1ccnc1 (centres unmarked) [Climbazole] | < 5 | – |
| N=C(N)NC(=N)N1CCOCC1 [Moroxydine HCl] | 17.2 | – |
| CCCCn1c(=O)c2c(ncn2CC(C)=O)n(CCCC)c1=O [Denbufylline] | < 5 | – |
| CN(C)C(=N)NC(=N)N [Metformin] | 8.6 | – |
| COc1cc(NS(=O)(=O)c2ccc(N)cc2)nc(OC)n1 [Sulfadimethoxine] | < 5 | – |
| C[C@H]1[C@H](C)CC[C@]2(C(=O)O)CC[C@]3(C)C(=CC[C@@H]4[C@@]5(C)CC[C@H](O)C(C)(C)[C@@H]5CC[C@]43C)[C@H]12 [Uosolic acid] | 75.2 | – |
| CNCCC(Oc1ccccc1OC)c1ccccc1 (centres unmarked) [Nisoxetine HCl] | < 5 | – |
| Cc1ncc([N+](=O)[O-])n1CCO [Metronidazole] | < 5 | – |
| C[C@@H](O[C@H]1OCCN(Cc2n[nH]c(=O)[nH]2)[C@H]1c1ccc(F)cc1)c1cc(C(F)(F)F)cc(C(F)(F)F)c1 [Aprepitant] | < 5 | – |
| CC(=O)[C@]1(O)Cc2c(O)c3c(c(O)c2[C@@H](O[C@H]2C[C@H](N)[C@H](O)[C@H](C)O2)C1)C(=O)c1ccccc1C3=O [Idarubicin] | < 5 | – |
| CN(C)CCc1c[nH]c2ccc(C[C@H]3COC(=O)N3)cc12 [zolmitriptan] | < 5 | – |
| CN(C)CCCN1c2ccccc2Sc2ccc(Cl)cc21 [Chlorpromazine HCl] | < 5 | – |
| CCCCc1ncc(/C=C(\Cc2cccs2)C(=O)O)n1Cc1ccc(C(=O)O)cc1 [Eprosartan] | 6.2 | – |
| CC(=O)NC[C@H]1CN(c2ccc(N3CCOCC3)c(F)c2)C(=O)O1 [Linezolid] | < 5 | – |
| COc1ccc2cc(CCC(C)=O)ccc2c1 [Nabumetone] | < 5 | – |
| O=C1NC(=O)C(c2ccccc2)(c2ccccc2)N1 [Phenytoin] | < 5 | – |
| CC1CNc2c(cccc2S(=O)(=O)N[C@@H](CCCNC(=N)N)C(=O)N2CC[C@@H](C)C[C@@H]2C(=O)O)C1 (some centres unmarked) [Argatroban] | < 5 | – |
| C[C@H](N[C@@H](CCc1ccccc1)C(=O)O)C(=O)N1CCC[C@H]1C(=O)O [Enalaprilat] | < 5 | – |

Source: publication PMC5363571 (Oncotarget, 2016)
